What all share (test): Ray2010 Assay 74
Experiment [1] addresses 5-hydroxytryptamine receptor 1B (Homo sapiens, UniProt P28222). The source says: (§1) Table S2 shows raw Ki data for the current study combined with data collected from the literature for the ten additional compounds.
Experiment [2] concerns the target D(2) dopamine receptor (Homo sapiens, UniProt P14416).
Description: as §1

The target of experiment [3] is T1, Alpha-1A adrenergic receptor (Homo sapiens, UniProt P35348).
T1 sequence (P35348 whole entry): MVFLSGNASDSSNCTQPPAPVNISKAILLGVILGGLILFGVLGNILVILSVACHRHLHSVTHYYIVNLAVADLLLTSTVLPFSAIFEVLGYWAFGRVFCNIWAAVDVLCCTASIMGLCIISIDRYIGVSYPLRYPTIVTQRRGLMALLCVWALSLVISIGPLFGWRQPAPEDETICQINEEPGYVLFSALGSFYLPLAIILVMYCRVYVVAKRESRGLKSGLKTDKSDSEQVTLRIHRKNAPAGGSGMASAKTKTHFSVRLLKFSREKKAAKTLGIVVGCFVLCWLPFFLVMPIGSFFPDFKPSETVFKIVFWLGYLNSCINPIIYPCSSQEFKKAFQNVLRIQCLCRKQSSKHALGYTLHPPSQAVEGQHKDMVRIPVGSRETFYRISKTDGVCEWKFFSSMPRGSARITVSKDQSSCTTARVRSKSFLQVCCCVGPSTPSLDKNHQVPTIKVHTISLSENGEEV
Description: as §1

The target in experiment [4] is 5-hydroxytryptamine receptor 2B (Homo sapiens, UniProt P41595).
Chain of 5-hydroxytryptamine receptor 2B (P41595 whole entry): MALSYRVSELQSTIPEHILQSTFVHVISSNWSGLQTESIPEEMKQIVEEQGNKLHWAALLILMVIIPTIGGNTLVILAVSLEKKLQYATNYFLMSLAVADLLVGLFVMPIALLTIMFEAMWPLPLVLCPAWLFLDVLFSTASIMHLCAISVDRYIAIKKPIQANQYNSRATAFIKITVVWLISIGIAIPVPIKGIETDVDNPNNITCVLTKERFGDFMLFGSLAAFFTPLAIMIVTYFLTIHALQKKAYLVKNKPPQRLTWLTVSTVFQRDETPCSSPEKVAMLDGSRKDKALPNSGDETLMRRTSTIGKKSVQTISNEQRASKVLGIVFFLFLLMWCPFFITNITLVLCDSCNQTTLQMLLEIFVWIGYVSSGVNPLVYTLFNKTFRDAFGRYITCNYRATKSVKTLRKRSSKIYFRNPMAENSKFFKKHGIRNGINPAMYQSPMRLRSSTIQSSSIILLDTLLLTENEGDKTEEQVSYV
Description: as §1

Experiment [5] has as its target T2, 5-hydroxytryptamine receptor 1A (Homo sapiens, UniProt P08908).
T2 sequence (P08908 whole entry): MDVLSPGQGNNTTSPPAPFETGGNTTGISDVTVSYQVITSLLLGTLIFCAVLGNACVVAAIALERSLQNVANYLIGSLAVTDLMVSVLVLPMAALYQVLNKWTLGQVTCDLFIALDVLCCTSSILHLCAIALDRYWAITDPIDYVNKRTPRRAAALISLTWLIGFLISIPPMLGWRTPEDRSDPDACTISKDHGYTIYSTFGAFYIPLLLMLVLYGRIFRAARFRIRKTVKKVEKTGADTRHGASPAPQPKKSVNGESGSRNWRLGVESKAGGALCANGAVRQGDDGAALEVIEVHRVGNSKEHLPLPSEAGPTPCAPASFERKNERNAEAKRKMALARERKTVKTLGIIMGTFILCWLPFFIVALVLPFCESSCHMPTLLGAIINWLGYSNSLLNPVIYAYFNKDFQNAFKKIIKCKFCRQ
Description: as §1

Experiment [6] deals with 5-hydroxytryptamine receptor 5A (Homo sapiens, UniProt P47898).
Chain of 5-hydroxytryptamine receptor 5A (P47898 whole entry): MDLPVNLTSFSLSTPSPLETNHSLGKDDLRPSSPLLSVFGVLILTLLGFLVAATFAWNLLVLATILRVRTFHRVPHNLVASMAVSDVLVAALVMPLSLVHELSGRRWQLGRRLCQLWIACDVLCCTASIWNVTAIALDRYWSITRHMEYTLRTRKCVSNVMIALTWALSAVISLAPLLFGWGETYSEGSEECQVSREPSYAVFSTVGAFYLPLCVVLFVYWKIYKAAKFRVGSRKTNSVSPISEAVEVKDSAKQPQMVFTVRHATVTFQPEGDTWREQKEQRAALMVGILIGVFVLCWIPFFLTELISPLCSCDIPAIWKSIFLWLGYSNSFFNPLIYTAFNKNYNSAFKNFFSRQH
Description: as §1

The target in experiment [7] is T3, Muscarinic acetylcholine receptor M5 (Homo sapiens, UniProt P08912).
T3 sequence (P08912 whole entry): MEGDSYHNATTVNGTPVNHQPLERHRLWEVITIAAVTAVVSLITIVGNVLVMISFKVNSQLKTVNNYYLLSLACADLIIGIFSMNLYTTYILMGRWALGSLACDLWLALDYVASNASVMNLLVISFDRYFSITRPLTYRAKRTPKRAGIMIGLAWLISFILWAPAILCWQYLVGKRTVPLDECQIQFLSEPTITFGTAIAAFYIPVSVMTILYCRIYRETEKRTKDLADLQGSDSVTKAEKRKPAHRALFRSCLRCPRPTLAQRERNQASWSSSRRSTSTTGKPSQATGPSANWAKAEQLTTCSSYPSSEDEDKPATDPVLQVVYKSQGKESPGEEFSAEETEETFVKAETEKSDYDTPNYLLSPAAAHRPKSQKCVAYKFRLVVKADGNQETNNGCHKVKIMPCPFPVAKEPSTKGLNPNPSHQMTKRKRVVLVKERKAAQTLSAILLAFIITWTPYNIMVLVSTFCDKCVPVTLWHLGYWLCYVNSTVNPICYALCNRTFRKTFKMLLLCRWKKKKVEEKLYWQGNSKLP
Description: as §1

Experiment [8] has as its target 5-hydroxytryptamine receptor 2A (Homo sapiens, UniProt P28223).
Description: as §1

Experiment [9] deals with T4, Alpha-1B adrenergic receptor (Homo sapiens, UniProt P35368).
T4 sequence (P35368 whole entry): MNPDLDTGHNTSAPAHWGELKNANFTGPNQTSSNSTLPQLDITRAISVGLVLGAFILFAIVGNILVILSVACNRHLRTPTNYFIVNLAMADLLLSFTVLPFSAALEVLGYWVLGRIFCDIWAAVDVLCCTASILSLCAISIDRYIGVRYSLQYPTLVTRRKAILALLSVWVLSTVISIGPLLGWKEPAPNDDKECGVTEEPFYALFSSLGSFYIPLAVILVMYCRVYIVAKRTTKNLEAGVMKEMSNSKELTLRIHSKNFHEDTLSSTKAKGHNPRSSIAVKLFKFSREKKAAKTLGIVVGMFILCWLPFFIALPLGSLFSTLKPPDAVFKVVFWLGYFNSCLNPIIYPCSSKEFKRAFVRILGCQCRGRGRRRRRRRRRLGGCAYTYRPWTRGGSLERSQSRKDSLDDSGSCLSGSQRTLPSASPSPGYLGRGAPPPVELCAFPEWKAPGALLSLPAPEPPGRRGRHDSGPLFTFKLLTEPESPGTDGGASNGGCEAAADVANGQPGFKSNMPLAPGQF
Description: as §1

In experiment [10] the target is Histamine H1 receptor (Homo sapiens, UniProt P35367).
Chain of Histamine H1 receptor (P35367 whole entry): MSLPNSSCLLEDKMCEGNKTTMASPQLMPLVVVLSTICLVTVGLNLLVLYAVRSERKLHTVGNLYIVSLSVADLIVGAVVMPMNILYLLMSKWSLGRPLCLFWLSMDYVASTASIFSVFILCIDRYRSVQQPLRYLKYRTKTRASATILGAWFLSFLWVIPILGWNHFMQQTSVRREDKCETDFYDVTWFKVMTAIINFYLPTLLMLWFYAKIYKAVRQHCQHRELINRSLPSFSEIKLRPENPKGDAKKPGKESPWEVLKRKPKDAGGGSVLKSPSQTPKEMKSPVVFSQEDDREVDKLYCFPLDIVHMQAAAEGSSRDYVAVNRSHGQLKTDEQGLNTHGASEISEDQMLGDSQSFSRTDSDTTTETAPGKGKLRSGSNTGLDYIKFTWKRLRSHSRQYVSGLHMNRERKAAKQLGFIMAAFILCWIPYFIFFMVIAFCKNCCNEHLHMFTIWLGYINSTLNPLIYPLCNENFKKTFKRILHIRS
Description: as §1

SMILES strings stand for the structures. Some results are limits rather than exact numbers.

Chain of 5-hydroxytryptamine receptor 1B (P28222 whole entry): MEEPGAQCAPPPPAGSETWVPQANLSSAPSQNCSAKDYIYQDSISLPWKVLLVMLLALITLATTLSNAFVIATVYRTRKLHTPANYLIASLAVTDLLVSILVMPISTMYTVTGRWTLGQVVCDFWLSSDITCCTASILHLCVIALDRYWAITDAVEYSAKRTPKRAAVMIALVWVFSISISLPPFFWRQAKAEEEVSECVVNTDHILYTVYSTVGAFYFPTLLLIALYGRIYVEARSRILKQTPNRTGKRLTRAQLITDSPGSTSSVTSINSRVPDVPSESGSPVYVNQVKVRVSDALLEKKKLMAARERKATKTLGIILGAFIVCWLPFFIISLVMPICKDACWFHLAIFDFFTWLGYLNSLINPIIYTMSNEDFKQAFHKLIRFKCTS
Chain of 5-hydroxytryptamine receptor 2A (P28223 whole entry): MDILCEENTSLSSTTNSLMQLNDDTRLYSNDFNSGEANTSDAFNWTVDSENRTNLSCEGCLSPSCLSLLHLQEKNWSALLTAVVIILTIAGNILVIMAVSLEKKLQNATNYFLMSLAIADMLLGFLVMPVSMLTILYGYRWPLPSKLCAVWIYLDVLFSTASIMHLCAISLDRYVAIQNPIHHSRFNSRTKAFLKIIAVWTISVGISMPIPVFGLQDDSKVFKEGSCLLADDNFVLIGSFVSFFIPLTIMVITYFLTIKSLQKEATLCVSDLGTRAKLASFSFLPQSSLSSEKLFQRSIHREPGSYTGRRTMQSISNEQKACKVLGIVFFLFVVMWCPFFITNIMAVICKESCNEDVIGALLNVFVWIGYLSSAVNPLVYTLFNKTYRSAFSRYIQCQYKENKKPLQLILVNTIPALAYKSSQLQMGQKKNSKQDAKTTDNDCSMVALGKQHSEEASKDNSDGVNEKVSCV
Chain of D(2) dopamine receptor (P14416 whole entry): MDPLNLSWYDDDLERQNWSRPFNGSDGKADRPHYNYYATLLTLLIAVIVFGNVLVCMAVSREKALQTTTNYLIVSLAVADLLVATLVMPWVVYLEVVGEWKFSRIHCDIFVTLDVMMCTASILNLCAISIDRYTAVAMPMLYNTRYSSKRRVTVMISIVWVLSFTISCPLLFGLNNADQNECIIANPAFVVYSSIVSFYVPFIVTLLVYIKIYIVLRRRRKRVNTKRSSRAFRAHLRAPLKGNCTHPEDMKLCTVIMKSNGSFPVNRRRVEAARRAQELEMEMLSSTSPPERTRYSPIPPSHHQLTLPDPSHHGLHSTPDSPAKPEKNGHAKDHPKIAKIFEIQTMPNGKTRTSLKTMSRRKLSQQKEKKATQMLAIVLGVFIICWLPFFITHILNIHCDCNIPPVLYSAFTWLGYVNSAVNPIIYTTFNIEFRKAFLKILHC

Turning to `CC(N)Cc1ccc2c(c1)OCO2` (stereo unspecified), the Ki in experiment [1] was greater than 10000 nM; in experiment [2] it was greater than 10000 nM; in [3], greater than 10000 nM; in [4], 91 nM; in experiment [5], 3760 nM; in experiment [6], greater than 10000 nM. Also, the Ki in [7], in experiment [8] and in experiment [9] was greater than 10000 nM throughout.

`C[C@@H]1C[C@H](C)N1C(=O)C1C=C2c3cccc4[nH]cc(c34)C[C@H]2N(C)C1` (stereo partly drawn) [cis-2a]: the Ki in experiment [1] stood at 3.7 nM; in [2], 49.1 nM; in experiment [3], 529 nM; in [4], 44 nM; in experiment [5], 2.3 nM; in experiment [6], 16.4 nM. Further, the Ki was 29.7 nM in experiment [8], greater than 10000 nM in experiment [9] and 501 nM in [10].

As for `COc1cc(CC(C)N)cc(OC)c1OC` (stereo unspecified), the Ki was 2860 nM in experiment [1]; greater than 10000 nM in experiment [2]; greater than 10000 nM in experiment [3]; 477 nM in experiment [4]; 1680 nM in experiment [5]; greater than 10000 nM in experiment [6]. Moreover, the inhibitory constant (Ki) in experiment [7], in [8], in experiment [9] and in experiment [10] was greater than 10000 nM throughout.

Take `COc1cc(OC)c(OC)cc1CC(C)N` (stereo not drawn) [(+/-)1-Methyl-2-(2,4,5-trimethoxy-phenyl)-ethylamine]: the Ki in experiment [1] is greater than 10000 nM; in experiment [2] it was greater than 10000 nM; in experiment [3], greater than 10000 nM; in [4], 154 nM; in experiment [5], greater than 10000 nM; in [6], greater than 10000 nM. In addition, the Ki in experiment [7] is greater than 10000 nM; in experiment [8], 584 nM; in [9], greater than 10000 nM; in experiment [10], 1410 nM.

For `NCCc1c2c(c(Br)c3c1OCC3)OCC2` [2-(8-Bromo-2,3,6,7-tetrahydro-benzo[1,2-b;4,5-b']difuran-4-yl)-ethylamine], the inhibitory constant (Ki) was 185 nM in experiment [1]; 6840 nM in [2]; greater than 10000 nM in experiment [3]; 0.9 nM in [4]; 147 nM in experiment [5]; greater than 10000 nM in experiment [6]. For the same compound, the Ki in [7] is 873 nM; in [8], 11.6 nM; in experiment [9], greater than 10000 nM; in experiment [10], 5750 nM.

As for `C[C@@H]1C[C@@H](C)N1C(=O)C1C=C2c3cccc4[nH]cc(c34)C[C@H]2N(C)C1` (stereo partly specified) [rr-2b], the Ki in [1] was found to be 2 nM; in experiment [2], 264 nM; in [3], 5190 nM; in experiment [4], 312 nM; in experiment [5], 5.2 nM; in experiment [6], 12.7 nM. Moreover, the inhibition constant (Ki) is 690 nM in experiment [8], greater than 10000 nM in [9] and 1450 nM in experiment [10].

Consider `CCN(CC)C(=O)[C@@H]1C=C2c3cccc4[nH]cc(c34)C[C@H]2N(C)C1` [[N-methyl-3H]LSD], for which the Ki in [1] stood at 3.9 nM; in experiment [2] it was 110 nM; in [3], 1130 nM; in experiment [9], 8680 nM.

As for `CCc1cc(OC)c(CC(C)N)cc1OC` (stereo unspecified), the Ki in [1] is 2800 nM; in [2], greater than 10000 nM; in experiment [3], greater than 10000 nM; in [4], 28.8 nM; in experiment [5], 14.4 nM; in [6], greater than 10000 nM. Further, the inhibitory constant (Ki) in experiment [7] is greater than 10000 nM; in experiment [8], 27.3 nM; in [9], greater than 10000 nM; in [10] it was greater than 10000 nM.

The Ki is the dissociation constant of the complex between target and ligand, obtained from inhibition or displacement. A low value points to higher affinity.

The values are drawn from BindingDB's records for PubMed 20126400 (University of Oklahoma, 2010).
